Source: patent publication US20240059703A1 (AMGEN INC., priority 2021, published 2024)

Experiments:
KRAS G12C = KRAS G12C (Homo sapiens (Human), UniProt P01116, C118A/G12C); test: 2 h coupled exchange assay; assay type: biochemical; settings: Avg 2 h Coupled exchange IC50, 2 h compound pre-incubation
Procedure: The term “2 h coupled exchange assay” or “20 h coupled exchange assay” as used herein refers to the assay described in the Section entitled “BIOLOGICAL EVALUATION.”

[1] = test system: MIA PaCa-2 (human pancreatic carcinoma) cells; test: Cell Viability Assay (CellTiter-Glo), MIA PaCa-2; assay type: cell-based; settings: Homo sapiens, MIA PaCa-2, 72 h
Procedure: Serially-diluted compound or DMSO was added to the cells, and plates were incubated at 37° C., 5% CO2 for 72 h. Cell viability was measured using a CellTiter-Glo® Luminescent Cell Viability Assay kit (Promega) according to the manufacturer's protocol. The luminescence signal of treated samples was normalized to DMSO control, and data were analyzed using a 4-parameter logistic model to calculate IC50 values.

[2] = test system: A549 (human lung carcinoma) cells; test: Cell Viability Assay (CellTiter-Glo), A549; assay type: cell-based; settings: Homo sapiens, A549, 72 h
Method in brief: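 RPMI 1640/10% FBS; seed 1.67E+04 cells/mL, o/n 37° C., 5% CO2; serial-dilution cmpd 72 h; CellTiter-Glo luminescence vs DMSO; 4-parameter logistic fit → IC50.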

Sequence of KRAS G12C (P01116 other isoform, or with tags, fused parts or gaps G12C/C118A): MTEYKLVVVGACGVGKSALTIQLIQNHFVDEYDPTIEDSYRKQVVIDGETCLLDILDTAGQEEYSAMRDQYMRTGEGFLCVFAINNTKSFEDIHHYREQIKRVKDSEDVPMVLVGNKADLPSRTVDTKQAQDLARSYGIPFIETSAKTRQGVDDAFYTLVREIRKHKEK

Row | IC50 (KRAS G12C) [µM] | IC50 [1] [µM] | IC50 [2] [µM] | Structure (SMILES)
1 | 0.22 | > 5 | > 5 | C=CC(=O)N1CC2(CCN(c3nc4c(c(-c5cc(O)ccc5F)c3C#N)CCN(C(C)C)C4)C2)C1 [Example 21-15, 4-(2-fluoro-5-hydroxyphenyl)-7-(2-propanyl)-2-(2-(2-propenoyl)-2,6-diazaspiro[3.4]octan-6-yl)-5,6,7,8-tetrahydro-1,7-naphthyridine-3-carbonitrile]
2 | 0.108 | 0.931 | 5.11 | C=CC(=O)N1CC2(CCN(c3nc4c(c(-c5ccc(F)cc5F)c3C#N)CCN(c3scnc3C)C4)[C@H]2C)C1 [Example 21-16, 4-(2,4-difluorophenyl)-2-((5S)-5-methyl-2-(2-propenoyl)-2,6-diazaspiro[3.4]octan-6-yl)-7-(4-methyl-1,3-thiazol-5-yl)-5,6,7,8-tetrahydro-1,7-naphthyridine-3-carbonitrile]
3 | 0.136 | 0.337 | 9.84 | C=CC(=O)N1CC2(CCN(c3nc4c(c(-c5ccc(F)cc5F)c3C#N)CCN(c3scnc3C)C4)[C@@H]2C)C1 [Example 21-17, 4-(2,4-difluorophenyl)-2-((5R)-5-methyl-2-(2-propenoyl)-2,6-diazaspiro[3.4]octan-6-yl)-7-(4-methyl-1,3-thiazol-5-yl)-5,6,7,8-tetrahydro-1,7-naphthyridine-3-carbonitrile]
4 | 0.853 | 2.82 | 10.2 | C=CC(=O)N1CC2(CCN(c3nc4c(c(-c5ccc(F)cc5F)c3C#N)CCN(C(C)C)C4)[C@H]2C)C1 [Example 21-18, 4-(2,4-difluorophenyl)-2-((5S)-5-methyl-2-(2-propenoyl)-2,6-diazaspiro[3.4]octan-6-yl)-7-(2-propanyl)-5,6,7,8-tetrahydro-1,7-naphthyridine-3-carbonitrile]

Further lines, the compound ahead of its results:

Row | Structure (SMILES) | IC50 (KRAS G12C) [µM] | IC50 [1] [µM] | IC50 [2] [µM]
5 | C=CC(=O)N1CC2(CCN(c3nc4c(c(-c5cc(O)ccc5Cl)c3C#N)CCN(c3scnc3C)C4)C2)C1 [Example 21-13, 4-(2-chloro-5-hydroxyphenyl)-7-(4-methyl-1,3-thiazol-5-yl)-2-(2-(2-propenoyl)-2,6-diazaspiro[3.4]octan-6-yl)-5,6,7,8-tetrahydro-1,7-naphthyridine-3-carbonitrile] | 0.014 | 1.07 | > 5
6 | C=CC(=O)N1CC2(CCN(c3nc4c(c(-c5cccc(F)c5O)c3C#N)CCN(c3scnc3C)C4)C2)C1 [Example 21-14, 4-(3-fluoro-2-hydroxyphenyl)-7-(4-methyl-1,3-thiazol-5-yl)-2-(2-(2-propenoyl)-2,6-diazaspiro[3.4]octan-6-yl)-5,6,7,8-tetrahydro-1,7-naphthyridine-3-carbonitrile] | 0.035 | > 5 | > 5
7 | C=CC(=O)N1CC2(CCN(c3nc4c(c(-c5cc(O)ccc5F)c3C#N)CCN(c3scnc3C)C4)C2)C1 [Example 21-19, 4-(2-fluoro-5-hydroxyphenyl)-7-(4-methyl-1,3-thiazol-5-yl)-2-(2-(2-propenoyl)-2.6-diazaspiro[3.4]octan-6-yl)-5,6,7,8-tetrahydro-1,7-naphthyridine-3-carbonitrile] | 0.035 | 1.17 | > 5
8 | C=CC(=O)N1CC2(CCN(c3nc4c(c(-c5ccccc5F)c3C#N)CCN(c3ncc(C)s3)C4)C2)C1 [Example 21-20, 4-(2-fluorophenyl)-7-(5-methyl-1,3-thiazol-2-yl)-2-(2-(2-propenoyl)-2.6-diazaspiro[3.4]octan-6-yl)-5,6,7,8-tetrahydro-1,7-naphthyridine-3-carbonitrile] | 0.973 | 5.25 | 9.88
9 | C=CC(=O)N1CC2(CCN(c3nc4c(c(-c5ccccc5F)c3C#N)CCN(c3ccncc3C)C4)C2)C1 [Example 21-21, 4-(2-fluorophenyl)-7-(3-methyl-4-pyridinyl)-2-(2-(2-propenoyl)-2,6-diazaspiro[3.4]octan-6-yl)-5,6,7,8-tetrahydro-1,7-naphthyridine-3-carbonitrile] | 0.442 | > 5 | > 5
